How the values were obtained:
[1] = target: T1, Epac1 (Homo sapiens, UniProt O95398); assay: In vitro GEF activity (initial velocity of GDP exchange on Rap1A) of Epac1; type: biochemical
T1 construct: Recombinant human Epac1 (residues 149-881), deleted of its Dishevelled, Egl-10, and Pleckstrin (DEP) domain; made in house
T1 sequence (O95398 149-881 isoform O95398-3): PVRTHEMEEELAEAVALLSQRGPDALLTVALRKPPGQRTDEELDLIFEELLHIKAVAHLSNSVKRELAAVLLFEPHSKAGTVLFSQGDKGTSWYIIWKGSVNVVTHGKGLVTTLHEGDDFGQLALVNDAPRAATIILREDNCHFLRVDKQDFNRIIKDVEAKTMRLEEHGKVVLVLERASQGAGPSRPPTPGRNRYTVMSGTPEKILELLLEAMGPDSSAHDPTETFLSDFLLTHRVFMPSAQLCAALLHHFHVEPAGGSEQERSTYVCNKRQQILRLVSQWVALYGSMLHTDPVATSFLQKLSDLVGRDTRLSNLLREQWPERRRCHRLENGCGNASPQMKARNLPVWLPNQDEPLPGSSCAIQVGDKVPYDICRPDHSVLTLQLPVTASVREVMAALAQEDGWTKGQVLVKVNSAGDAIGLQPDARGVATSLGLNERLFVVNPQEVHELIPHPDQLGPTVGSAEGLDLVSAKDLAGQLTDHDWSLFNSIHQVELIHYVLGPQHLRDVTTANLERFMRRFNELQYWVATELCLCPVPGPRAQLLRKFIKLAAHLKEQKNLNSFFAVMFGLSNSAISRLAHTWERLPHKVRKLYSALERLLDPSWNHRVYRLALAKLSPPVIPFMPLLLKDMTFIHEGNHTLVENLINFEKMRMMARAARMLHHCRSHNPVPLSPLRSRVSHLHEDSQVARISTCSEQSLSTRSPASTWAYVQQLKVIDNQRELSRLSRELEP
Description: Protein NCBI Reference Sequences for human Epac1 and Epac2 are NP_006096 and NP_008954, respectively. Recombinant human Epac1 (residues 149-881), deleted of its Dishevelled, Egl-10, and Pleckstrin (DEP) domain, and human Rap1A were produced with GST as a fusion tag (D. Courilleau et al., Identification of a tetrahydroquinoline analog as a pharmacological inhibitor of the cAMP-binding protein Epac, J. Biol. Chem. 287 (2012) 44192-44202).
In vitro GDP exchange catalyzed by Epac was measured using purified recombinant Epac isoforms and Rap1A loaded with Bodipy-GDP, as described in D. Courilleau, et al (above mentioned). The GEF activity of Epac proteins was initiated by injection of the agonist. Stock solutions of CE3F4 and its analogs (12 mM in 100% DMSO) were kept at −20° C. and were diluted in assay buffer (0.67% final DMSO concentration) just before use for GDP exchange assays. The release of Bodipy-GDP was measured in real time as the decay of fluorescence. A single exponential was fit to the time-course data using the Graphpad Prism program. The initial velocity (Vi) of GDP exchange on Rap1 was calculated as described in D. Courilleau et al.).
Data are expressed as mean±S.D. Differences in quantitative variables were examined by unpaired one- or two-tailed Student's t test. EC50 and IC50 values were computed according to a four-parameters dose-response model and compared on the basis of the extra sum-of square F test, using Graphpad Prism. Two-tailed Wilcoxon matched-pair signed rank tests were performed using GraphPad Prism.

[2] = test system: Epac1-induced H-Ras activation in HEK293 cells; assay: Epac1-induced H-Ras activation, H-Ras-GTP pull-down in HEK293 cells; type: cell-based
Description: (§1) The effects of CE3F4 to prevent Epac1-induced H-Ras activation was determined by extraction of GTP-loaded H-Ras from cell lysates with the immobilized Ras-binding domain of Raf1.
(§2) HEK293 cells (FIG. 3A) or rat neonatal cardiac myocytes (FIG. 3B) were transfected with Epac1. 24 h after transfection, cells were preincubated or not with CE3F4 for 30 min and were then treated or not with Sp-007 (10 μM) for 10 min. In FIG. 3C, HEK293 cells overexpressing β1-AR and transfected with Epac1 were pretreated or not with 20 μM of CE3F4 for 30 min and stimulated or not with Iso for 10 min. Amounts of H-Ras-GTP were determined by pull-down assays. The bar graph represents the mean±S.E.M. of 5 (FIG. 3A) or 2 (FIG. 3B, 3C) independent experiments. Results are expressed as the percentage of unstimulated control cells.
Ras and Rap1 pull-down experiments were performed using a GST fusion protein containing respectively the Ras binding domain of Raf1-RBD and the Rap1 binding domain of Ral-GDS as previously described (Métrich et al., 2008). Cells were starved for 1 h before stimulation in MEM free with penicillin-streptomycin (1%). […]

[3] = test system: Epac1-induced H-Ras activation in rat neonatal cardiac myocytes; assay: Epac1-induced H-Ras activation, H-Ras-GTP pull-down in rat neonatal cardiac myocytes; type: cell-based; details: rat neonatal cardiac myocytes transfected with Epac1; CE3F4 30 min; Sp-007 10 μM, 10 min; FIG. 3B
Description: as §1, §2
Cardiac myocytes were isolated as previously described by Wollert and colleagues (1996). HEK293 cells stably expressing the β1-adrenergic receptor (β1-AR) was a gift of Dr. Shenoy (Duke University). HEK293 cells were maintained in MEM with FBS (Foetal Bovine Serum; 10%) and penicillin-streptomycin (1%). All media, sera and antibiotics used in cell culture were purchased from Invitrogen (Cergy Pontoise, France). […]

For `CC1CCc2c(cc(Br)c(F)c2Br)N1C=O` (racemic) [CE3F4], the “Inhibition of GEF activity of Epac1 compared with Epac2(AB) or Epac2(B)” value ([1]; 50 μM racemic CE3F4, agonist 50 μM 007 or 300 μM cAMP, FIG. 6A) was “much more inhibited”, the EC50 ([1]; Epac1 GEF activity toward Rap1, Epac1 activated by 20 μM 007, mean of n=4 to 9 independent determinations) was 10.7 µM and the IC50 ([1]; Epac1 activated by 300 μM cAMP) was 11 µM. For the same compound, the “Antagonism of cAMP-activated Epac1 GEF activity” value ([1]; compound 30 μM, 300 μM cAMP, FIG. 6C) was “stronger antagonist”, the “Amount of Ras-GTP induced by Iso” value ([2]; HEK293 overexpressing β1-AR, transfected with Epac1, CE3F4 20 μM, 30 min, Iso 10 min, FIG. 3C) was “decreased” and the “Amount of Ras-GTP induced by Sp-007” value ([2]; HEK293 transfected with Epac1, CE3F4 30 min, Sp-007 10 μM, 10 min, FIG. 3A) was “decreased”. The “Amount of Ras-GTP induced by Sp-007” value [3] was “decreased”.

From US10093627B2, “Tetrahydroquinoline derivatives and their use as Epac inhibitors” (Institut National de la Sante et de la Recherche Medicale …, priority 2012, dated 2018)
